# Laboratory results as given in patent US7566712B2, “Biaryl piperazinyl-pyridine analogues” (Neurogen Corporation, priority 2003, dated 2009).
# Biological target: T1, human capsaicin receptor (Homo sapiens, UniProt Q8NER1)
# T1 construct: pBK-CMV expression construct encoding the full length human capsaicin receptor; expressed in transfected cells
# Experiment: Calcium mobilization assay, determination of antagonist activity (Example 6)
# Type: cell-based
# Details: Table II; IC50 determined as described in Example 6
# Protocol: A cDNA encoding full length human capsaicin receptor (SEQ ID NO: 1, 2 or 3 of U.S. Pat. No. 6,482,611) was subcloned in the plasmid pBK-CMV (Stratagene, La Jolla, Calif.) for recombinant expression in mammalian cells.
# Human embryonic kidney (HEK293) cells were transfected with the pBK-CMV expression construct encoding the full length human capsaicin receptor using standard methods. The transfected cells were selected for two weeks in media containing G418 (400 μg/ml) to obtain a pool of stably transfected cells. Independent clones were isolated from this pool by limiting dilution to obtain clonal stable cell lines for use in subsequent experiments.
# This Example illustrates representative calcium mobilization assays for use in evaluating test compounds for agonist and antagonist activity.
# Cells transfected with expression plasmids (as described in Example 4) and thereby expressing human capsaicin receptor are seeded and grown to 70-90% confluency in FALCON black-walled, clear-bottomed 96-well plates (#3904, BECTON-DICKINSON, Franklin Lakes, N.J.). The culture medium is emptied from the 96 well plates and FLUO-3 AM calcium sensitive dye (Molecular Probes, Eugene, Oreg.) is added to each well (dye solution: 1 mg FLUO-3 AM, 440 μL DMSO and 440 pi 20% pluronic acid in DMSO, diluted 1:250 in Krebs-Ringer HEPES (KRH) buffer (25 mM HEPES, 5 mM KCl, 0.96 mM NaH2PO4, 1 mM MgSO4, 2 mM CaCl2, 5 mM glucose, 1 mM probenecid, pH 7.4), 50 μl diluted solution per well). Plates are covered with aluminum foil and incubated at 37° C. for 1-2 hours in an environment containing 5% CO2. After the incubation, the dye is emptied from the plates, and the cells are washed once with KRH buffer, and resuspended in KRH buffer.
# To measure the ability of a test compound to agonize or antagonize a calcium mobilization response in cells expressing capsaicin receptors to capsaicin or other vanilloid agonist, the EC50 of the agonist capsaicin is first determined. An additional 20 μl of KRH buffer and 1 μl DMSO is added to each well of cells, prepared as described above. 100 μl capsaicin in KRH buffer is automatically transferred by the FLIPR instrument to each well. Capsaicin-induced calcium mobilization is monitored using either FLUOROSKAN ASCENT (Labsystems; Franklin, Mass.) or FLIPR (fluorometric imaging plate reader system; Molecular Devices, Sunnyvale, Calif.) instruments. Data obtained between 30 and 60 seconds after agonist application are used to generate an 8-point concentration response curve, with final capsaicin concentrations of 1 nM to 3 μM. KALEIDAGRAPH software (Synergy Software, Reading, Pa.) is used to fit the data to the equation: y=a*(1/(1+(b/x)^c)) to determine the 50% excitatory concentration (EC50) for the response. In this equation, y is the maximum fluorescence signal, x is the concentration of the agonist or antagonist (in this case, capsaicin), a is the Emax, b corresponds to the EC50 value and c is the Hill coefficient. Determination of Agonist Activity
# Test compounds are dissolved in DMSO, diluted in 20 μl KRH buffer so that the final concentration of test compounds in the assay well is between 1 μM and 5 μM, and added to cells prepared as described above. The 96 well plates containing prepared cells and test compounds are incubated in the dark, at room temperature for 0.5 to 6 hours. It is important that the incubation not continue beyond 6 hours. Just prior to determining the fluorescence response, 100 pi capsaicin in KRH buffer at twice the EC50 concentration determined as described above is automatically added by the FLIPR instrument to each well of the 96 well plate for a final sample volume of 200 μl and a final capsaicin concentration equal to the EC50. The final concentration of test compounds in the assay wells is between 1 μM and 5 μM. […]
# T1 sequence (Q8NER1 whole entry): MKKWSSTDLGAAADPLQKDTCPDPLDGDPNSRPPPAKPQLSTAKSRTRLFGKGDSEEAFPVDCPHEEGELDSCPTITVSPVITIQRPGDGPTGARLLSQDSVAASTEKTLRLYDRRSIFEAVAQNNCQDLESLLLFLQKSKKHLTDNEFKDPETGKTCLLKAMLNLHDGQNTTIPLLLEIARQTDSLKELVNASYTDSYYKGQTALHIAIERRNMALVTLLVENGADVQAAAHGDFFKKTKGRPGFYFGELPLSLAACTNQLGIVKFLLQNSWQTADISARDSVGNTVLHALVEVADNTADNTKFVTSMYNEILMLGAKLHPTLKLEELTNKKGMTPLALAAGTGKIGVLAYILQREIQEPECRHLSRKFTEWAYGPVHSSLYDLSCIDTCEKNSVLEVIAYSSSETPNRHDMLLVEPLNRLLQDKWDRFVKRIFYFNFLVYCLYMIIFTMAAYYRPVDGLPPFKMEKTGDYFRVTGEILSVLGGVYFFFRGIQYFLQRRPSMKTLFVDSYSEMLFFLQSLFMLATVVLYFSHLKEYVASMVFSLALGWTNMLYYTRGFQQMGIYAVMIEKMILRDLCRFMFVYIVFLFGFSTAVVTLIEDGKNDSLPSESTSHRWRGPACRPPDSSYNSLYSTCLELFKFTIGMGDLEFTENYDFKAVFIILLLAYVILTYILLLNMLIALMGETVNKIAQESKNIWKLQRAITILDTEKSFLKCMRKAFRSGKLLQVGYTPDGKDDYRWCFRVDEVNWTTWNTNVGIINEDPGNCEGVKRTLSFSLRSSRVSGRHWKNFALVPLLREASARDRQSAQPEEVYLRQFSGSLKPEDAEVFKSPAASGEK
row,Compound,IC50
1,"Cc1ccc(-c2cc(N3CCN(c4ncccc4C)C[C@H]3C)nc(N3CCOCC3)n2)cc1F [Example 494, 4-{4-(3-fluoro-4-methylphenyl)-6-[(2R)-2-methyl-4-(3-methylpyridin-2-yl)piperazin-1-yl]pyrimidin-2-yl}morpholine]",≤ 1000 nM
2,"Cc1cc(-c2cc(N3CCN(c4ncccc4C(F)(F)F)C[C@H]3C)nc(N3CCOCC3)n2)ccc1F [Example 497, 4-(4-(4-fluoro-3-methylphenyl)-6-{(2R)-2-methyl-4-[3-(trifluoromethyl)pyridin-2-yl]piperazin-1-yl}pyrimidin-2-yl)morpholine]",≤ 1000 nM
3,"C[C@@H]1CN(c2ncccc2C#N)CCN1c1cc(-c2cccc(OC(F)(F)F)c2)nc(N2CCOCC2)n1 [Example 532, 2-((3R)-3-methyl-4-{2-morpholin-4-yl-6-[3-(trifluoromethoxy)phenyl]pyrimidin-4-yl}piperazin-1-yl)nicotinonitrile]",≤ 1000 nM
4,"COc1ccc(Cl)cc1-c1nc(N2CCOCC2)nc(N2CCN(c3ccccn3)CC2)n1 [Example 431, 2-(5-chloro-2-methoxyphenyl)-4-morpholin-4-yl-6-(4-pyridin-2-ylpiperazin-1-yl)-1,3,5-triazine]",≤ 1000 nM
5,"C[C@@H]1CN(c2ncccc2Cl)CCN1c1cc(-c2ccc(Cl)cc2)nc(N2CCOCC2)n1 [Example 485, 4-{4-(4-chlorophenyl)-6-[(2R)-4-(3-chloropyridin-2-yl)-2-methylpiperazin-1-yl]pyrimidin-2-yl}morpholine]",≤ 1000 nM
6,"CN(C)C1CCN(c2nc(-c3ccc(F)c(Cl)c3)cc(N3CCN(c4ncccc4C(F)(F)F)CC3)n2)C1 (centres unmarked) [Example 562, 1-(4-(3-chloro-4-fluorophenyl)-6-{4-[3-(trifluoromethyl)pyridin-2-yl]piperazin-1-yl}pyrimidin-2-yl)-N,N-dimethylpyrrolidin-3-amine]",≤ 1000 nM
7,"C[C@@H]1CN(c2ncccc2C(F)(F)F)CCN1c1cc(-c2ccc(OC(F)(F)F)cc2)nc(N2CCOCC2)n1 [Example 528, 4-{4-{(2R)-2-methyl-4-(3-(trifluoromethyl)pyridin-2-yl]piperazin-1-yl}-6-[4-(trifluoromethoxy)phenyl]pyrimidin-2-yl}morpholine]",≤ 1000 nM
8,"C=CCN1CCN(c2nc(-c3ccc(F)c(C)c3)nc(N3CCN(c4ncccc4C(F)(F)F)CC3)n2)CC1 [Example 450, 2-(4-allylpiperazin-1-yl)-4-(4-fluoro-3-methylphenyl)-6-{4-[3-(trifluoromethyl)pyridin-2-yl]piperazin-1-yl}-1,3,5-triazine]",≤ 1000 nM

# Same assay, conditions: Table II; determined as described in Example 6 (antagonist activity); "*" = 1 micromolar or less
row,Compound,IC50
1,"Fc1ccc(-c2cc(N3CCN(c4ncccc4C(F)(F)F)CC3)nc(N3C[C@H]4C[C@@H]3CN4)n2)cc1Cl [Example 775, (1R,4R)-2-(4-(3-chloro-4-fluorophenyl)-6-{4-[3-(trifluoromethyl)pyridin-2-yl]piperazin-1-yl}pyrimidin-2-yl)-2,5-diazabicyclo[2.2.1]heptane]",≤ 1000 nM
2,"Cc1cc(C#N)cnc1N1CCN(c2cc(-c3ccc(F)cc3)nc(N3CCCC3C)n2)[C@H](C)C1 (some centres unmarked) [Example 932, 6-{4-[6-(4-fluorophenyl)-2-(2-methylpyrrolidin-1-yl)pyrimidin-4-yl]-3-methylpiperazin-1-yl}-5-methylnicotinonitrile]",≤ 1000 nM
3,"Cc1cc(NS(C)(=O)=O)cnc1N1CCN(c2cc(-c3ccc(F)c(Cl)c3)nc(N3CCCC3C)n2)CC1 (centres unmarked) [Example 817, N-(6-{4-[6-(3-chloro-4-fluorophenyl)-2-(2-methylpyrrolidin-1-yl)pyrimidin-4-yl]piperazin-1-yl}-5-methylpyridin-3-yl)methanesulfonamide]",≤ 1000 nM
4,"COc1ncc(Cl)c(N2CCN(c3cc(-c4ccc(F)cc4)nc(Cl)n3)[C@H](C)C2)n1 [Example 965, 5-chloro-4-{(3R)-4-[2-chloro-6-(4-fluorophenyl)pyrimidin-4-yl]-3-methylpiperazin-1-yl}-2-methoxypyrimidine]",≤ 1000 nM
5,"C[C@@H]1CN(c2ncccc2Cl)CCN1c1cc(-c2cncc(C#N)c2)nc(N2CCCC2)n1 [Example 879, 5-{6-[(2R)-4-(3-chloropyridin-2-yl)-2-methylpiperazin-1-yl]-2-pyrrolidin-1-ylpyrimidin-4-yl}nicotinonitrile]",≤ 1000 nM
6,"CC1CCCN1c1nc(-c2ccc(Cl)c(F)c2)cc(N2CCN(c3ncccc3Cl)C[C@H]2C)n1 (some centres unmarked) [Example 834, 4-(4-chloro-3-fluorophenyl)-6-[4-(3-chloropyridin-2-yl)-2-methylpiperazin-1-yl]-2-(2-methylpyrrolidin-1-yl)pyrimidine]",≤ 1000 nM
7,"C[C@@H]1CN(c2ncccc2Cl)CCN1c1cc(-c2cncc(Cl)c2)nc(N2CCOCC2)n1 [Example 837, 4-{4-(5-chloropyridin-3-yl)-6-[(2R)-4-(3-chloropyridin-2-yl)-2-methylpiperazin-1-yl]pyrimidin-2-yl}morpholine]",≤ 1000 nM

# Same assay, conditions: Table II; determined as described in Example 6; class symbol
row,Compound,IC50
1,"c1ccc(N2CCN(c3nc(-c4cccc5ccccc45)nc(N4CCOCC4)n3)CC2)nc1 [Example 270, 2-morpholin-4-yl-4-(1-naphthyl)-6-(4-pyridin-2-ylpiperazin-1-yl)-1,3,5-triazine]",≤ 1000 nM

# Same assay, conditions: determined as described in Example 6 (calcium mobilization, antagonist activity); Table II
row,Compound,IC50
1,"CCC(=O)N1CCN(c2nc(-c3ccc(F)c(Cl)c3)cc(N3CCN(c4ncccc4C(F)(F)F)CC3)n2)CC1 [Example 626, 4-(3-chloro-4-fluorophenyl)-2-(4-propionylpiperazin-1-yl)-6-{4-[3-(trifluoromethyl)pyridin-2-yl]piperazin-1-yl}pyrimidine]",≤ 1000 nM
2,"Cc1cc(-c2cc(N3CCN(c4ncccc4Cl)CC3)nc(N3CCCCC3)n2)ccc1F [Example 717, 4-[4-(3-chloropyridin-2-yl)piperazin-1-yl]-6-(4-fluoro-3-methylphenyl)-2-piperidin-1-ylpyrimidine]",≤ 1000 nM
3,"CCN1CCN(c2nc(-c3ccc(F)c(C)c3)cc(N3CCN(c4ncccc4C(F)(F)F)CC3)n2)CC1 [Example 667, 2-(4-ethylpiperazin-1-yl)-4-(4-fluoro-3-methylphenyl)-6-{4-[3-(trifluoromethyl)pyridin-2-yl]piperazin-1-yl}pyrimidine]",≤ 1000 nM
4,"CC1CCC(C)N1c1nc(-c2ccc(F)c(Cl)c2)cc(N2CCN(c3ncccc3C(F)(F)F)CC2)n1 (centres unmarked) [Example 669, 4-(3-chloro-4-fluorophenyl)-2-(2,5-dimethylpyrrolidin-1-yl)-6-{4-[3-(trifluoromethyl)pyridin-2-yl]piperazin-1-yl}pyrimidine]",≤ 1000 nM
5,"CCc1nccn1-c1nc(-c2cccc(Cl)c2)cc(N2CCN(c3ncccc3C(F)(F)F)CC2)n1 [Example 633, 4-(3-chlorophenyl)-2-(2-ethyl-1H-imidazol-1-yl)-6-{4-[3-(trifluoromethyl)pyridin-2-yl]peperazin-1-yl}pyrimidine]",≤ 1000 nM
6,"Cc1cc(-c2cc(N3CCN(c4ncccc4C(F)(F)F)CC3)nc(N(C)C3CC3)n2)ccc1F [Example 736, N-cyclopropyl-4-(4-fluoro-3-methylphenyl)-N-methyl-6-{4-[3-(trifluoromethyl)pyridin-2-yl]piperazin-1-yl}pyrimidin-2-amine]",≤ 1000 nM
7,"CC(C)N(C)c1nc(-c2ccc(F)c(Cl)c2)cc(N2CCN(c3ncccc3C(F)(F)F)CC2)n1 [Example 600, 4-(3-chloro-4-fluorophenyl)-N-isopropyl-N-methyl-6-{4-[3-(trifluoromethyl)pyridin-2-yl]piperazin-1-yl}pyrimidin-2-amine]",≤ 1000 nM
